Data taken from publication PMC4104029, “Mechanism of Action of Compound-13: An α1-Selective Small Molecule Activator of AMPK” (Chemistry & Biology, 2014).

Experiments:
5′-nucleotidase = test: 5′-Nucleotidase assay; type: biochemical; conditions: concentrations up to 100 μM; data not shown
Experimental: Additional enzyme assays. Glycogen phosphorylase (EC 2.4.1.1) was assayed in the physiological direction in reactions containing 20 mM BES pH 6.8, 20 mM phosphate, 1 mM NADP+, 0.5 mM MgCl2, 0.1 % glycogen, 4 µM glucose-1,6-bisphosphate, 0.5 mM DTT, 0.025 % BSA, 0.6 U/ml phosphoglucomutase and 3 U/ml glucose-6-phosphate dehydrogenase (G6PDH). FBP1 (EC 3.1.3.11) was assayed in reactions containing 50 mM TES pH 7.4, 0.1 […]
mM 2-mercaptoethanol, 25 µM fructose-1,6-bisphosphate, 0.8 U/ml phosphoglucoisomerase and 0.5 U/ml G6PDH. PFK1 (EC 2.7.1.11) was assayed in reactions containing 50 mM TES pH 7.4, 2 mM MgCl2, 0.05 % BSA, 2 mM 2-mercaptoethanol, 0.5 mM fructose-6-phosphate, 1 mM ATP, 0.2 mM NADH, 0.5 U/ml aldolase, 15 U/ml triosephosphate isomerase and 2 U/ml α-glycerophosphate dehydrogenase. […] All assays were performed in a final volume of 250 µl and were monitored by changes in fluorescence (FBP1 - λex 340nm, λem 450nm) or A340. […] Liberated phosphate was determined using malachite green reagent. […] The formation of pyrophosphate (PPi) was monitored by reduction of PPi-molybdate complexes using 2-mercaptoethanol and Fiske-Subbarow reducer (Kuang, et al., 2007). […]
Tricistronic expression vectors were constructed using a strategy inspired by Neumann et al (Neumann, et al., 2003). […] The open reading frame of AMPKα1 and AMPKα2 was inserted after the 6×His tag as a Bamh1-Not1 fragment. […]

α1-KO hepatocytes = test: Lipid synthesis, [1-14C]acetate incorporation; type: cell-based, mouse; conditions: 1 μM
Experimental: Figure 6 C13 Is Relatively Selective for α1 Complexes in Primary Hepatocytes (A) Hepatocytes from WT, AMPKα1^−/−, and AMPKα2^−/− mice were treated with the indicated concentrations of C13 and labeled with [1-^14C]acetate for 3 hr. Rates of fatty acid and sterol synthesis were estimated from incorporation into saponifiable (upper graphs) and nonsaponifiable (lower graphs) lipids. Results are expressed as percentage WT vehicle and represent the mean ± SD for three independent experiments. (B) Mouse hepatocytes were incubated with the indicated concentrations of C13 for 3 hr, and lysates were analyzed using western blotting with the indicated antibodies.
Lipid synthesis was determined by labeling adherent cultures of primary hepatocytes with [1-^14C]acetate. After overnight culture, hepatocytes (5 × 10^5) were washed with warm PBS and allowed to rest for 3 hr in fresh M199. Cells were treated with vehicle (0.1% DMSO) or the indicated compounds and labeled with 1 mCi⋅mmol^−1 [1-^14C]acetate for 3 hr. […] Lipogenesis in hepatocytes from AMPKβ1/β2-KO mice was determined in media containing [^3H]acetate (0.2 mCi⋅mmol^−1). After 4 hr labeling, total lipids were extracted using the method of [Bligh and Dyer (1959)], and incorporated [^3H] was determined by scintillation counting. The results are expressed as micromoles acetate incorporated per gram-hour.

O=P(O)(O)c1ccc(-c2cc(O)on2)o1 [Compound C2, 5-(5-hydroxyl-isoxazol-3-yl)-furan-2-phosphonic acid]
effect on enzyme activity (5′-nucleotidase): None of these enzymes were affected

CC(C)C(=O)OCOP(=O)(OCOC(=O)C(C)C)c1ccc(C2=NOC(=O)C2)o1 [Compound C13]
effect on synthesis of saponifiable and nonsaponifiable lipids (α1-KO hepatocytes): no effect
